Molecular target: NAMPT enzyme (Homo sapiens (Human), UniProt P43490)
Assay: Enzyme Assay and NMN Detection (NAMPT reaction, fluorescence detection of NMN)
Assay type: biochemical
Details: Table B-1; NAMPT activation, NMN formation
Procedure: NAMPT reaction was performed in 50 mM HEPES, pH 7.5, containing 5 mM MgCl2, 0.1% Prionex, 0.005% Tween 20, and 1 mM TCEP at room temperature in Greiner 384-well black polypropylene plates. The concentration of substrates and enzymes in the final assay were as follows: ATP (120 uM), nicotinamide (5 uM), phosphoribosylpyrophosphate (6.25 uM), NAMPT enzyme (16 nM), pyrophosphatase (0.04 U/ml) in the final reaction volume 6 uL. Following 2 h incubation the reaction was stopped by addition 2.5 ul 20% acetophenone in dimethyl sulfoxide (DMSO) and 2.5 ul 2 MKOH. Plates were centrifuges and added with 10.5 ul 88% formic acid. The fluorescence (ex380/em460) was measured following another short incubation and 30 min incubation. The increased concentration of NMN was determined from a calibration curve obtained at the time of experiment.

Chain of NAMPT enzyme (P43490 whole entry, species assumed): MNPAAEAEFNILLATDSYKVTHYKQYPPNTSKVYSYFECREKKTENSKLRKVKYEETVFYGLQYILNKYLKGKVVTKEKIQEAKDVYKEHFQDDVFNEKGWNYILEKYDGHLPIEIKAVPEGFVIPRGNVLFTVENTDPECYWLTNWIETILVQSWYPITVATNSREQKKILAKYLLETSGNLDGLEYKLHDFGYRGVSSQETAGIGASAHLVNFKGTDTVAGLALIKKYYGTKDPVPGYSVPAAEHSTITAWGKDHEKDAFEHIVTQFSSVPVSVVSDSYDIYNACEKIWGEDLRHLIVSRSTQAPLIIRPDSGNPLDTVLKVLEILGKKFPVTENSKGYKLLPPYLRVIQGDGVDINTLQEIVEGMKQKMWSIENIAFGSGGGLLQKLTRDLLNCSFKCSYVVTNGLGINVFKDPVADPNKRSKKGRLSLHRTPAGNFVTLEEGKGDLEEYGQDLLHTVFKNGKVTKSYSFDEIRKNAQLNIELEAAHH

SMILES | EC50 [nM]
O=C(NCc1cn[nH]c1)Nc1ccc(S(=O)(=O)c2ccccc2)cc1 [1-(4-Benzenesulfonyl-phenyl)-3-(1H-pyrazol-4-ylmethyl)-urea] | < 100
O=C(NCc1cnco1)Nc1ccc(S(=O)(=O)c2ccccc2)cc1 [1-(4-Benzenesulfonyl-phenyl)-3-oxazol-5-ylmethyl-urea] | < 100

Same assay, conditions: Table B-2; NAMPT activation, NMN formation

SMILES | EC50 [nM]
O=C(NCc1ccncc1)Nc1ccc(C(=O)N2Cc3ccccc3C2)cc1 [1-(4-(Isoindoline-2-carbonyl)phenyl)-3-(pyridin-4-ylmethyl)urea] | > 20000
O=C(NCc1ccncc1)Nc1ccc(C(=O)N2CCOCC2)cc1 [1-(4-(Morpholine-4-carbonyl)phenyl)-3-(pyridin-4-ylmethyl)urea] | 5000 to 20000
O=C(NCc1ccncc1)Nc1ccc(C(=O)N2CCCCC2)cc1 [1-(4-(Piperidine-1-carbonyl)phenyl)-3-(pyridin-4-ylmethyl)urea] | 5000 to 20000
O=C(NCc1ccncc1)Nc1ccc(S(=O)(=O)c2ccccc2)cc1 [1-(4-Benzenesulfonyl-phenyl)-3-pyridin-4-ylmethyl-urea] | < 100
O=C(NCc1ccncc1)Nc1ccc(S(=O)(=O)Cc2ccccc2)cc1 [1-(4-Phenylmethanesulfonyl-phenyl)-3-pyridin-4-ylmethyl-urea] | 2000 to 5000
O=C(NCc1ccncc1)Nc1ccc(NS(=O)(=O)Cc2ccc(Cl)cc2)cc1 [1-(4-chlorophenyl)-N-(4-(3-(pyridin-4-ylmethyl)ureido)phenyl)methanesulfonamide] | < 100

Now from value to compound:

EC50 [nM] | SMILES
5000 to 20000 | O=C(NCc1ccncc1)Nc1ccc(Cl)cc1 [1-(4-Chlorophenyl)-3-(pyridin-4-ylmethyl)urea]
> 20000 | O=C(NCc1ccncc1)Nc1ccc(F)cc1 [1-(4-Fluorophenyl)-3-(pyridin-4-ylmethyl)urea]
> 20000 | COc1ccc(NC(=O)NCc2ccncc2)cc1 [1-(4-Methoxyphenyl)-3-(pyridin-4-ylmethyl)urea]

Same assay, conditions: Table B-3; NAMPT activation, NMN formation

SMILES | EC50 [nM]
O=C(NCc1ccccn1)Nc1ccc(Cl)cc1 [1-(4-Chlorophenyl)-3-(pyridin-2-ylmethyl)urea] | > 20000
O=C(NCc1ccccn1)Nc1ccc(F)cc1 [1-(4-Fluorophenyl)-3-(pyridin-2-ylmethyl)urea] | > 20000

Next, values leading:

EC50 [nM] | SMILES
> 20000 | O=C(NCc1cccnc1)Nc1ccc(Cl)cc1 [1-(4-Chlorophenyl)-3-(pyridin-3-ylmethyl)urea]
> 20000 | O=C(NCc1cccnc1)Nc1ccc(F)cc1 [1-(4-Fluorophenyl)-3-(pyridin-3-ylmethyl)urea]
> 20000 | COc1ccc(NC(=O)NCc2ccccn2)cc1 [1-(4-Methoxyphenyl)-3-(pyridin-2-ylmethyl)urea]
> 20000 | COc1ccc(NC(=O)NCc2cccnc2)cc1 [1-(4-Methoxyphenyl)-3-(pyridin-3-ylmethyl)urea]

Same assay, conditions: Table B-4; NAMPT activation, NMN formation

SMILES | EC50 [nM]
O=C(NCc1cn[nH]c1)Nc1ccc(-c2cccc3scnc23)cc1 [1-(4-Benzothiazol-4-yl-phenyl)-3-(1H-pyrazol-4-ylmethyl)-urea] | 100 to 2000
O=C(NCc1cn[nH]c1)Nc1ccc(S(=O)(=O)C2CCCCC2)cc1 [1-(4-Cyclohexanesulfonyl-phenyl)-3-(1H-pyrazol-4-ylmethyl)-urea] | 100 to 2000
Cc1cccc2c1c(-c1ccc(NC(=O)NCc3cn[nH]c3)cc1)nn2C [1-((1H-Pyrazol-4-yl)methyl)-3-(4-(1,4-dimethyl-1H-indazol-3-yl)phenyl)urea] | 100 to 2000
Cc1ccc2c(c1)c(-c1ccc(NC(=O)NCc3cn[nH]c3)cc1)nn2C [1-((1H-Pyrazol-4-yl)methyl)-3-(4-(1,5-dimethyl-1H-indazol-3-yl)phenyl)urea] | 100 to 2000
Cc1cccc2c(-c3ccc(NC(=O)NCc4cn[nH]c4)cc3)nn(C)c12 [1-((1H-Pyrazol-4-yl)methyl)-3-(4-(1,7-dimethyl-1H-indazol-3-yl)phenyl)urea] | 2000 to 5000
Cn1nc(-c2ccc(NC(=O)NCc3cn[nH]c3)cc2)c2ccncc21 [1-((1H-Pyrazol-4-yl)methyl)-3-(4-(1-methyl-1H-pyrazolo[3,4-c]pyridin-3-yl)phenyl)urea] | 2000 to 5000
O=C(NCc1cn[nH]c1)Nc1ccc(-c2ncc(Cc3ccccc3)s2)cc1 [1-((1H-Pyrazol-4-yl)methyl)-3-(4-(5-benzylthiazol-2-yl)phenyl)urea] | 2000 to 5000
Cn1nc(-c2ccc(NC(=O)NCc3cn[nH]c3)cc2)c2cc(Cl)ccc21 [1-((1H-Pyrazol-4-yl)methyl)-3-(4-(5-chloro-1-methyl-1H-indazol-3-yl)phenyl)urea] | 100 to 2000
O=C(NCc1cn[nH]c1)Nc1ccc(-c2ncc(-c3ccccc3)s2)cc1 [1-((1H-Pyrazol-4-yl)methyl)-3-(4-(5-phenylthiazol-2-yl)phenyl)urea] | 5000 to 20000
O=C(NCc1cn[nH]c1)Nc1ccc(S(=O)(=O)c2cn[nH]c2)cc1 [1-((1H-Pyrazol-4-yl)methyl)-3-(4-((1H-pyrazol-4-yl)sulfonyl)phenyl)urea] | 100 to 2000
COc1ccc(-c2ccccc2S(=O)(=O)c2ccc(NC(=O)NCc3cn[nH]c3)cc2)cn1 [1-((1H-Pyrazol-4-yl)methyl)-3-(4-((2-(6-methoxypyridin-3-yl)phenyl)sulfonyl)phenyl)urea] | 5000 to 20000
O=C(NCc1cn[nH]c1)Nc1ccc(S(=O)(=O)c2ccccc2F)cc1 [1-((1H-Pyrazol-4-yl)methyl)-3-(4-((2-fluorophenyl)sulfonyl)phenyl)urea] | < 100
O=C(NCc1cn[nH]c1)Nc1ccc(S(=O)(=O)c2ccccc2-c2ccccc2Cl)cc1 [1-((1H-Pyrazol-4-yl)methyl)-3-(4-((2′-chloro-[1,1′-biphenyl]-2-yl)sulfonyl)phenyl)urea] | 100 to 2000

Same assay, conditions: Table B-5; NAMPT activation, NMN formation

SMILES | EC50 [nM]
O=C(NCc1cnco1)Nc1ccc(S(=O)(=O)c2ccc(Cl)cc2)cc1 [1-(4-((4-Chlorophenyl)sulfonyl)phenyl)-3-(oxazol-5-ylmethyl)urea] | 100 to 2000
O=C(NCc1cnco1)Nc1ccc(S(=O)(=O)c2ccc(F)cc2)cc1 [1-(4-((4-Fluorophenyl)sulfonyl)phenyl)-3-(oxazol-5-ylmethyl)urea] | 100 to 2000
O=C(NCc1cnco1)Nc1ccc(Nc2nc3ccccc3s2)cc1 [1-(4-(Benzo[d]thiazol-2-ylamino)phenyl)-3-(oxazol-5-ylmethyl)urea] | 5000 to 20000
O=C(NCc1cnco1)Nc1ccc(S(=O)(=O)c2ccccc2-c2ccccc2)cc1 [1-(4-([1,1′-Biphenyl]-2-ylsulfonyl)phenyl)-3-(oxazol-5-ylmethyl)urea] | < 100
O=C(NCc1cnco1)Nc1ccc(S(=O)(=O)c2cccc(-c3ccccc3)c2)cc1 [1-(4-([1,1′-Biphenyl]-3-ylsulfonyl)phenyl)-3-(oxazol-5-ylmethyl)urea] | 100 to 2000
O=C(NCc1cnco1)Nc1ccc(NS(=O)(=O)Cc2ccc(Cl)cc2)cc1 [1-(4-Chlorophenyl)-N-(4-(3-(oxazol-5-ylmethyl)ureido)phenyl)methanesulfonamide] | < 100
O=C(NCc1cnco1)Nc1ccc(S(=O)(=O)C2CCCCC2)cc1 [1-(4-cyclohexanesulfonyl-phenyl)-3-oxazol-5-ylmethyl-urea] | 2000 to 5000

Further lines, results first:

EC50 [nM] | SMILES
5000 to 20000 | O=C(NCc1cnco1)Nc1ccc(-c2nc3ccccc3s2)cc1 [1-(4-(Benzo[d]thiazol-2-yl)phenyl)-3-(oxazol-5-ylmethyl)urea]
100 to 2000 | O=C(NCc1cnco1)Nc1ccc(-c2cccc3scnc23)cc1 [1-(4-Benzothiazol-4-yl-phenyl)-3-oxazol-5-ylmethyl-urea]

Same assay, conditions: Table B-6; NAMPT activation, NMN formation

SMILES | EC50 [nM]
O=C(NCc1ccncc1)Nc1ccc(S(=O)(=O)c2cccc(F)c2)cc1 [1-(4-((3-Fluorophenyl)sulfonyl)phenyl)-3-(pyridin-4-ylmethyl)urea] | < 100
N#Cc1cccc(-c2ccccc2S(=O)(=O)c2ccc(NC(=O)NCc3ccncc3)cc2)c1 [1-(4-((3′-Cyano-[1,1′-biphenyl]-2-yl)sulfonyl)phenyl)-3-(pyridin-4-ylmethyl)urea] | 2000 to 5000
O=C(NCc1ccncc1)Nc1ccc(S(=O)(=O)c2ccc(F)cc2)cc1 [1-(4-((4-Fluorophenyl)sulfonyl)phenyl)-3-(pyridin-4-ylmethyl)urea] | 100 to 2000
O=C(NCc1ccncc1)Nc1ccc(Nc2nc(-c3ccccc3)cs2)cc1 [1-(4-((4-Phenylthiazol-2-yl)amino)phenyl)-3-(pyridin-4-ylmethyl)urea] | 100 to 2000
N#Cc1ccc(-c2ccccc2S(=O)(=O)c2ccc(NC(=O)NCc3ccncc3)cc2)cc1 [1-(4-((4′-Cyano-[1,l′-biphenyl]-2-yl)sulfonyl)phenyl)-3-(pyridin-4-ylmethyl)urea] | 5000 to 20000
O=C(NCc1ccncc1)Nc1ccc(S(=O)(=O)c2ccccn2)cc1 [1-(4-(Pyridin-2-ylsulfonyl)phenyl)-3-(pyridin-4-ylmethyl)urea] | 100 to 2000
O=C(NCc1ccncc1)Nc1ccc(S(=O)(=O)c2ccccc2-c2ccccc2)cc1 [1-(4-([1,1′-Biphenyl]-2-ylsulfonyl)phenyl)-3-(pyridin-4-ylmethyl)urea] | 100 to 2000
O=C(NCc1ccncc1)Nc1ccc(S(=O)(=O)C2CCCCC2)cc1 [1-(4-Cyclohexanesulfonyl-phenyl)-3-pyridin-4-ylmethyl-urea] | 100 to 2000

Second part, the compound after the results:

EC50 [nM] | SMILES
5000 to 20000 | O=C(NCc1ccncc1)Nc1ccc(Nc2ncc(-c3ccccc3)s2)cc1 [1-(4-((5-Phenylthiazol-2-yl)amino)phenyl)-3-(pyridin-4-ylmethyl)urea]
5000 to 20000 | O=C(NCc1ccncc1)Nc1ccc(-c2nc3ccccc3s2)cc1 [1-(4-(Benzo[d]thiazol-2-yl)phenyl)-3-(pyridin-4-ylmethyl)urea]
100 to 2000 | O=C(NCc1ccncc1)Nc1ccc(-c2cccc3scnc23)cc1 [1-(4-Benzothiazol-4-yl-phenyl)-3-pyridin-4-ylmethyl-urea]

Source: patent publication US11452717B2, “Small molecule activators of nicotinamide phosphoribosyltransferase (NAMPT) and uses thereof” (Sanford Burnham Prebys Medical Discovery Institute, priority 2017, dated 2022)
